Patent US20200121677A1, “SUBSTITUTED 6,7-DIHYDROPYRAZOLO[1,5-a]PYRAZINES AS NEGATIVE ALLOSTERIC MODULATORS OF MGLUR2 RECEPTORS” (Janssen Pharmaceutica NV, priority 2014, published 2020)
Counter-ions that a name gives are not always drawn.

Columns and labels:
human mGlu2 receptor = human mGlu2 receptor (Homo sapiens, UniProt Q14416); assay: [35S]GTPγS binding assay, mGluR2 negative allosteric modulation (membranes from CHO cells transfected with human mGlu2 receptor, glutamate ~EC80 60 μM); settings: for IC50: GTPγS - hmGluR2 anGT pIC50, membranes with human mGlu2 receptor; for IC50 / GTPγS - hmGluR2 anGT pIC50: glutamate ~EC80 (60 μM), pIC50 = -log IC50 (M); for Emax: read-out: GTPγS - hmGluR2 anGT Emax, relative maximal effect: maximal % inhibition relative to the control glutamate response; for GTPγS - hmGluR2 anGT pIC50: membranes with human mGlu2 receptor; for GTPγS - hmGluR2 anGT Emax: relative maximal effect: maximal % inhibition relative to the control glutamate response;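 as to all read-outs here: membranes preincubated 30 min at 30 °C with compound plus glutamate, then [35S]GTPγS (0.1 nM) incorporation measured over another 30 min at 30 °C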
human mGlu2 receptor, sequence (Q14416 19-872): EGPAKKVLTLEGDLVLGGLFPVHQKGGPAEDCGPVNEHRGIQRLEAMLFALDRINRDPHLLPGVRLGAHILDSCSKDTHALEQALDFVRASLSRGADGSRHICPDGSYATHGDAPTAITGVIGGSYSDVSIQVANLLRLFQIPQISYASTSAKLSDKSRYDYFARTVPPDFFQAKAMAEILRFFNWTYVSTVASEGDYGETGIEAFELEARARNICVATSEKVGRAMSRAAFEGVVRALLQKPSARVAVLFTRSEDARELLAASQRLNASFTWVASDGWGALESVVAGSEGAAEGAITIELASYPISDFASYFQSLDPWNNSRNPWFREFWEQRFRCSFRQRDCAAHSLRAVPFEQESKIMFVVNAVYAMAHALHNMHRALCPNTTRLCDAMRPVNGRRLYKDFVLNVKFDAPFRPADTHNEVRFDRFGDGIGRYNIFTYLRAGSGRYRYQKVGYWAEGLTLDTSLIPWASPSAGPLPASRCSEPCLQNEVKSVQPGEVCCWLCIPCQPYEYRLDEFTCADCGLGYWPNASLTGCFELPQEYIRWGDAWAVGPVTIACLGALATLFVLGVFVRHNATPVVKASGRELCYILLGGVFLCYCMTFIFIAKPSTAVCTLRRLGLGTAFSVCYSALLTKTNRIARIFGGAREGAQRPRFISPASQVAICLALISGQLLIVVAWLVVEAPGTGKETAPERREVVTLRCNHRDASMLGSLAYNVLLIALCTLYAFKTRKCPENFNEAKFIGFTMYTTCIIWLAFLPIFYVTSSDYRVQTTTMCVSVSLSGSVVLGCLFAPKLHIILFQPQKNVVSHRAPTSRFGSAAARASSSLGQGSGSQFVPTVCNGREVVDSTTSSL

melting point [°C] | IC50 (human mGlu2 receptor) [M] | Emax (human mGlu2 receptor) [%] | GTPγS - hmGluR2 anGT pIC50 (human mGlu2 receptor) | GTPγS - hmGluR2 anGT Emax (human mGlu2 receptor) [%] | SMILES
209.5 | 1.23e-09 | 126 | – | – | C[C@H]1CN(c2ccc(C(F)(F)F)cc2)C(=O)c2c(C(=O)Nc3cncc(F)n3)cnn21 [compound 145]
200.8 | 1.38e-08 | 115 | – | – | COc1cnccc1NC(=O)c1cnn2c1C(=O)N(c1ccc(C(F)(F)F)cc1)C[C@@H]2C [compound 16]
148.8 | 1.17e-07 | 99 | – | – | Cc1cc(CNC(=O)c2cnn3c2C(=O)N(c2ccc(C(F)(F)F)cc2)C[C@@H]3C)ccn1 [compound 63]
198.2 | 3.09e-09 | 107 | – | – | C[C@H]1CN(c2ccc(C(F)(F)F)cc2)C(=O)c2c(C(=O)Nc3ccc(S(C)(=O)=O)cc3)cnn21 [compound 6]
– | 2.63e-07 | 102 | – | – | C[C@H]1CN(c2ccc(C(F)(F)F)cc2)C(=O)c2c(C(=O)NC(C)(C)C)cnn21 [compound 68]
– | 6.92e-07 | 111 | – | – | Cc1cc(C(=O)NC(=O)c2cnn3c2C(=O)N(c2ccc(C(F)(F)F)cc2)C[C@@H]3C)ccn1 [compound 135, (7S)-7-Methyl-N-(2-methylpyridine-4-carbonyl)-4-oxo-5-[4-(trifluoromethyl)phenyl]-6,7-dihydropyrazolo[1,5-a]pyrazine-3-carboxamide]
– | 5.62e-09 | 101 | – | – | C[C@H]1CN(c2ccc(C(F)(F)F)cc2)C(=O)c2c(C(=O)Nc3ccc(F)nc3)cnn21 [compound 55, (7S)—N-(6-fluoro-3-pyridyl)-7-methyl-4-oxo-5-[4-(trifluoromethyl)phenyl]-6,7-dihydropyrazolo[1,5-a]pyrazine-3-carboxamide]
257.9 | 2.14e-07 | 110 | – | – | C[C@H]1CN(c2ccc(C(F)(F)F)cc2)C(=O)c2c(C(=O)Nc3ncc[nH]3)cnn21 [compound 142]
186.7 | 7.08e-08 | 104 | – | – | CC(NC(=O)c1cnn2c1C(=O)N(c1ccc(C(F)(F)F)cc1)C[C@@H]2C)C1CC1 (single isomer, unassigned) [compound 61]
217.7 | 1.7e-09 | 103 | – | – | C[C@H]1CN(c2ccc(C(F)(F)F)cc2)C(=O)c2c(C(=O)Nc3cccc(S(C)(=O)=O)c3)cnn21 [compound 2]
275 | 1.35e-06 | 95 | – | – | C[C@H]1CN(c2ccc(C(F)(F)F)cc2)C(=O)c2c(C(N)=O)cnn21 [compound 73, (7S)-7-methyl-4-oxo-5-[4-(trifluoromethyl)phenyl]-6,7-dihydropyrazolo [1,5-a]pyrazine-3-carboxamide]
– | – | – | 7.69 | 104 | COCc1cc(NC(=O)c2cnn3c2C(=O)N(c2ccc(C(F)(F)F)cc2)C[C@@H]3C)ccn1 [compound 149]
150.83 | 1.86e-08 | 105 | – | – | C[C@H]1CN(c2ccc(C(F)(F)F)cc2)C(=O)c2c(C(=O)Nc3cncc(CO)c3)cnn21 [compound 148, (7S)—N-[5-(hydroxymethyl)pyridin-3-yl]-7-methyl-4-oxo-5-[4-(trifluoromethyl)phenyl]-4,5,6,7-tetrahydropyrazolo[1,5-a]pyrazine-3-carboxamide]
– | 4.79e-08 | 110 | – | – | C[C@H]1CN(c2ccc(C(F)(F)F)cc2)C(=O)c2c(C(=O)Nc3ncccc3F)cnn21 [compound 12]
– | – | – | 8.03 | 106 | COCC1CN(c2ccc(C(F)(F)F)cc2)C(=O)c2c(C(=O)Nc3cccnc3)cnn21 (racemic) [compound 165]
– | – | – | 7.67 | 112 | COc1ccc(NC(=O)c2cnn3c2C(=O)N(c2ccc(C(F)(F)F)cc2)C[C@@H]3C)nc1 [compound 102]
– | – | – | 7.39 | 107 | Cc1cccc(NC(=O)c2cnn3c2C(=O)N(c2ccc(C(F)(F)F)cc2)C[C@@H]3C)n1 [compound 17]
– | 1.7e-09 | 102 | – | – | C[C@H]1CN(c2ccc(C(F)(F)F)cc2)C(=O)c2c(C(=O)Nc3ccccc3)cnn21 [compound 57, (7S)-7-Methyl-4-oxo-N-phenyl-5-[4-(trifluoromethyl)phenyl]-6,7-dihydropyrazolo[1,5-a]pyrazine-3-carboxamide]
– | 1.1e-09 | – | – | 106 | C[C@H]1CN(c2ccc(C(F)(F)F)cc2)C(=O)c2c(C(=O)Nc3cncc(F)c3)cnn21 [13a]
– | – | – | 6.10 | 108 | COCC1CN(c2ccc(C(F)(F)F)cc2)C(=O)c2c(C(=O)Nc3cccnc3)cnn21 (single isomer, unassigned) [compound 159]
– | 2e-07 | 104 | – | – | C[C@H]1CN(c2ccc(C(F)(F)F)cc2)C(=O)c2c(C(=O)NCc3ccccc3)cnn21 [compound 67]
146.4 | – | – | – | – | C[C@H]1CN(c2ccc(C(F)(F)F)cc2)C(=O)c2c(C(=O)Nc3cncc(F)c3)cnn21 (as salt: HCl) [13a]
– | 6.31e-08 | 103 | – | – | C[C@H]1CN(c2ccc(C(F)(F)F)cc2)C(=O)c2c(C(=O)NC=O)cnn21 [compound 134]
– | 4.57e-07 | 103 | – | – | CNC(=O)c1cnn2c1C(=O)N(c1ccc(C(F)(F)F)cc1)C[C@@H]2C [compound 69]

More lines, now with the values behind:

SMILES | melting point [°C] | IC50 (human mGlu2 receptor) [M] | Emax (human mGlu2 receptor) [%] | GTPγS - hmGluR2 anGT pIC50 (human mGlu2 receptor) | GTPγS - hmGluR2 anGT Emax (human mGlu2 receptor) [%]
Cc1cc(NC(=O)c2cnn3c2C(=O)N(c2ccc(C(F)(F)F)c(C#N)c2)C[C@@H]3C)ccn1 [compound 91] | 224.9 | 1.86e-08 | 103 | – | –
Cc1c(F)cncc1NC(=O)c1cnn2c1C(=O)N(c1ccc(Cl)cc1)C[C@@H]2C [compound 129] | 189.99 | 6.17e-09 | 110 | – | –
COCC1CN(c2ccc(C(F)(F)F)cc2)C(=O)c2c(C(=O)Nc3cnccn3)cnn21 (stereo not shown) [compound 163] | – | 1.02e-08 | 107 | – | –
C[C@H]1CN(c2ccc(C(F)(F)F)c(F)c2)C(=O)c2c(C(=O)Nc3cnccn3)cnn21 [compound 113] | 181.5 | 3.16e-09 | 107 | – | –
Cc1cc(NC(=O)c2cnn3c2C(=O)N(c2ccccc2)C[C@@H]3C)ccn1 [compound 97] | 94.5 | 1.48e-07 | 114 | – | –
COc1cc(N2C[C@H](C)n3ncc(C(=O)Nc4cnccn4)c3C2=O)ccc1C(F)(F)F [compound 115] | 193.3 | 6.92e-09 | 108 | – | –
Cc1cncc(NC(=O)c2cnn3c2C(=O)N(c2ccc(C(F)(F)F)c(F)c2)C[C@@H]3C)c1 [compound 22] | 246.7 | 3.55e-09 | 109 | – | –
C[C@H]1CN(c2ccc(C(F)(F)F)c(Cl)c2)C(=O)c2c(C(=O)Nc3cncc(F)c3)cnn21 [compound 50] | 168.1 | 1.74e-09 | 108 | – | –
COc1ccccc1NC(=O)c1cnn2c1C(=O)N(c1ccc(C(F)(F)F)c(OC)n1)C[C@@H]2C [compound 122] | 192.95 | 2.14e-08 | 113 | – | –
COCc1cc(N2C[C@H](C)n3ncc(C(=O)Nc4ccccn4)c3C2=O)ccc1C(F)(F)F [compound 31] | 160.4 | 2.29e-08 | 109 | – | –
O=C(Nc1cccnc1)c1cnn2c1C(=O)N(c1ccc(C(F)(F)F)cc1)CC2 [compound 153] | 229.9 | 1.23e-07 | 111 | – | –
COc1cncc(NC(=O)c2cnn3c2C(=O)N(c2ccc(C(F)(F)F)c(Cl)c2)C[C@@H]3C)c1 [compound 51] | 214.9 | 1.41e-09 | 113 | – | –
Cc1c(F)cncc1NC(=O)c1cnn2c1C(=O)N(c1ccc(C(F)(F)F)c(F)c1)C[C@@H]2C [compound 131] | 186.35 | 2.95e-09 | 110 | – | –
C[C@H]1CN(c2ccc(C(F)(F)F)cc2)C(=O)c2c(C(=O)NCC3CCOCC3)cnn21 [compound 70] | 128.8 | 8.13e-07 | 106 | – | –
Cc1cc(NC(=O)c2cnn3c2C(=O)N(c2ccc(C(F)(F)F)c(CF)c2)C[C@@H]3C)ccn1 [compound 54] | 141.3 | 5.25e-09 | 118 | – | –
Cc1cc(N2C[C@H](C)n3ncc(C(=O)Nc4cncc(F)c4C)c3C2=O)ccc1Cl [compound 79] | 182 | 1.66e-09 | 112 | – | –
C[C@H]1CN(c2ccc(C(F)(F)F)c(CF)c2)C(=O)c2c(C(=O)Nc3ccncc3)cnn21 [compound 52] | 197.4 | 2.57e-09 | 118 | – | –
COCC1CN(c2ccc(C(F)(F)F)c(Cl)c2)C(=O)c2c(C(=O)Nc3cccnc3)cnn21 (single isomer, unassigned) [compound 157] | – | 2.82e-07 | 104 | – | –
C[C@H]1CN(c2ccc(C(F)(F)F)c(CF)c2)C(=O)c2c(C(=O)Nc3cccnc3)cnn21 [compound 53] | – | – | – | 8.61 | 114
C[C@H]1CN(c2ccc(Cl)c(Cl)c2)C(=O)c2c(C(=O)Nc3ccc(F)nc3)cnn21 [compound 56] | – | – | – | 8.53 | 104
COCC1CN(c2ccc(C(F)(F)F)c(Cl)c2)C(=O)c2c(C(=O)Nc3cccnc3)cnn21 (stereo not shown) [compound 164] | – | 1.91e-09 | 108 | – | –
C[C@H]1CN(c2ccc(C(F)(F)F)cc2)C(=O)c2c(C(=O)NC3CCOCC3)cnn21 [compound 66] | – | 1.86e-07 | 103 | – | –
COCC1CN(c2ccc(C(F)(F)F)cc2)C(=O)c2c(C(=O)Nc3cnccn3)cnn21 (single isomer, unassigned) [compound 155] | – | – | – | 6.48 | 106
